Assay results: patent US20020058591A1, “Herbicidal compositions” (priority 2000, published 2002)

Tests used:
Type in all cases: in vivo
Avena fatua (AVEFA) [1] = test: Example B.2 post-emergence spray, greenhouse, visual scoring; conditions: 28 days after application
Procedure: (§1) The individual components herbicide, surfactant and humectant with regard to type and application rate as stated in Tables 1-4 were added with stirring to a water application rate of 300 l/ha so that a homogeneous spray mixture was formed. The active substances rimsulfuron and nicosulfuron in the commercially available formulations Cato® WG25 (Du Pont) and Motivell® (BASF) were used for this purpose, respectively. Iodosulfuron-methyl-sodium and mesosulfuron-methyl were added in each case as 20 percent water-dispersible powders. Foramsulfuron was used as 50 percent water-dispersible granules. The surfactants used were Genapol® LRO as 70 percent paste (Clariant) and Synperonic® A7 (Unichema).
(§2) Visual scoring was carried out using a percentage scale of 0%=no damage to 100%=all plants dead.
(§3) Seeds of the harmful plants LOLMU, ALOMY, AVEFA, ECHCG and DIGSA were sown in a sandy loam soil in round pots type 7 in a greenhouse and watered slightly. A daytime temperature of 22 to 24° C. and a nighttime temperature of 16 to 18° C. was adhered to, a uniform day length of 16 hours being achieved by additional illumination with sodium vapor lamps (approx. 7000 lux). The relative atmospheric humidity was 60 to 80%. Two weeks after sowing, the plants were treated on a laboratory spray conveyor with the spray mixtures of rimsulfuron (A2), nicosulfuron (A3), iodosulfuron-methyl sodium (A4) and foramsulfuron (A5) and of combinations of A2, A3, A4 and A5 with Genapol® LRO and sodium lactate, the spray mixtures being prepared as in Example A. The water application rate for the spray application of the preparations was 300 l/ha. After the treatment, the plants were returned to the greenhouse.

[2] = system: Alopecurus myosuroides (ALOMY); test: as above; conditions: 28 days after application
Procedure: as §1, §2, §3

[3] = system: Digitaria adscendens (DIGSA); test: as above; conditions: 28 days after application
Procedure: as §1, §2, §3

[4] = system: Lolium multiflorum (LOLMU); test: as above; conditions: 28 days after application
Procedure: as §1, §2, §3

[5] = system: Echinochloa crus-galli (ECHCG); test: as above; conditions: 28 days after application
Procedure: as §1, §2, §3

Bromus tectorum (BROTE) = test: Example B.3 post-emergence spray, pots in the open, minimal irrigation, visual scoring; conditions: A1 10 g a.i./ha (surfactant 300, humectant 300 g a.i./ha where combined), 28 days after application
Procedure: as §1, §2
Seeds of the harmful plant BROTE were sown in a sandy loam soil in round pots type 13 in the open and watered slightly. During the entire experimental period, the substrate only received minimal irrigation. Four weeks after sowing, the plants were treated on a laboratory spray conveyor with spray mixtures of components mesosulfuron-methyl (A1), Genapol® LRO and sodium lactate, A1, Synperonic®A7 and sodium lactate and A1, Genapol® LRO and propylene glycol, the spray mixtures being prepared as in Example A. The water application rate for the spray application of the preparations was 300 l/ha. […]

Avena fatua (AVEFA) [6] = test: Example B.1 post-emergence spray, controlled-environment cabinet, minimal irrigation, visual scoring; conditions: A1 60 g a.i./ha (Genapol LRO 324, sodium lactate 150 g a.i./ha where combined); 14 days after application; 0%=no damage, 100%=all plants dead; 50% rel. humidity
Procedure: as §1, §2
(§4) Seeds of the harmful plants AVEFA and LOLMU were sown in a sandy loam soil in round pots type 13 in a controlled-environment cabinet and watered slightly. During the entire experiment period, the substrate only received minimal irrigation. A daytime temperature of 18° C. and a nighttime temperature of 16° C. was adhered to, a uniform day length of 16 hours being achieved by additional illumination with sodium vapor lamps (approx. 7000 lux). The relative atmospheric humidity was 50%. […]

[7] = system: Lolium multiflorum (LOLMU); test: as above; conditions: A1 60 g a.i./ha (Genapol LRO 324, sodium lactate 150 g a.i./ha where combined); 14 days after application; 0%=no damage, 100%=all plants dead; 50% rel. humidity
Procedure: as §1, §2, §4

SMILES	Action [%] against harmful plants AVEFA (Avena fatua (AVEFA) [1]; herbicide 20 g a.i./ha)	Action [%] against harmful plants ALOMY ([2]; herbicide 20 g a.i./ha)	Action [%] against harmful plants ECHCG ([5]; herbicide 20 g a.i./ha)	Action [%] against harmful plants DIGSA ([3]; herbicide 20 g a.i./ha)	Action [%] against harmful plants LOLMU ([4]; herbicide 20 g a.i./ha)	other results
CCS(=O)(=O)c1cccnc1S(=O)(=O)NC(=O)Nc1nc(OC)cc(OC)n1 [A2]	–	–	–	–	–	Action [%] against harmful plants AVEFA (Avena fatua (AVEFA) [1]; herbicide 5 g a.i./ha): 0%; Action [%] against harmful plants ALOMY ([2]; herbicide 5 g a.i./ha): 70%; Action [%] against harmful plants DIGSA ([3]; herbicide 5 g a.i./ha): 30%; Action [%] against harmful plants LOLMU ([4]; herbicide 5 g a.i./ha): 60%; Action [%] against harmful plants ECHCG ([5]; herbicide 5 g a.i./ha): 10%
COC(=O)c1ccc(CNS(C)(=O)=O)cc1S(=O)(=O)NC(=O)Nc1nc(OC)cc(OC)n1 [A1, methyl 2-[3-(4,6-dimethoxypyrimidin-2-yl)ureidosulfonyl]4-methanesulfonamido-methylbenzoate]	–	–	–	–	–	Action [%] against harmful plants BROTE (Bromus tectorum (BROTE)): 12.5%; Action [%] against harmful plants AVEFA (Avena fatua (AVEFA) [6]): 10%; Action [%] against harmful plants LOLMU [7]: 10%
COc1cc(OC)nc(NC(=O)NS(=O)(=O)c2ncccc2C(=O)N(C)C)n1 [A3, 1-(3-N,N-dimethylaminocarbonylpyridin-2-ylsulfonyl)-3-(4,6-dimethoxypyrimidin-2-yl)urea]	0%	0%	0%	–	–	–
COc1cc(OC)nc(NC(=O)NS(=O)(=O)c2cc(NC=O)ccc2C(=O)N(C)C)n1 [A5, N,N-dimethyl-2-[3-(4,6-dimethoxypyrimidin-2-yl)ureidosulfonyl]4-formylamino-benzamide]	60%	70%	30%	0%	50%	–
COC(=O)c1ccc(I)cc1S(=O)(=O)NC(=O)Nc1nc(C)nc(OC)n1 [A4, 3-(4-methoxy-6-methyl-1,3,5-triazin-2-yl)-1-(2-methoxycarbonyl-5-iodophenyl-sulfonyl)urea]	60%	50%	70%	30%	60%	–
